We go through 5 molecules from patent US7528235B2, “Multi-functional antibodies” (The Regents of the Univarsity of California, priority 2003, dated 2009).

The subject of one series is 2D12.5. As to the kind of experiment: relative binding curves of 2D12.5 for Y-DOTA isomers and Y-DOTA molecules with different sidechain locations. Also noted: species or system murine. The settings on record: for relative binding affinity, different sidechain locations: Y-DOTA molecules, FIG. 17; for relative binding affinity, Y-DOTA isomers: coordinated metal Y^3+, FIG. 16. The source says:
FIG. 16 is a graphical display showing the relative binding curves of 2D12.5 for Y-DOTA isomers and Y-DTPA. 2D12.5 binds both the (R)- and (S)-isomers of 2-(4-nitrobenzyl)-DOTA when the coordinated metal is Y^3+ (the same behavior is expected for the other rare earths). The (S)-isomer confers Λ-helicity, while the (R)-isomer confers Δ-helicity to the acetate arms. […] Y-DOTA (no-sidearm) exists is solution as a racemic mixture of the coordination isomers.
FIG. 17 is a graphical display showing the relative binding curves of Y-DOTA molecules with different sidechain locations. […] Evaluation of the crystal structure seems to indicate that shorter substitutions at this position may bind with higher affinity. Substitutions at other locations may yield reasonably high affinitites as well. The (5-Amino-2-methoxy-phenyl)-carboxymethyl)-DOTA analyzed in this experiment was racemic, so it is not clear which isomer binds with higher affinity. The low pKa of the carboxymethyl proton makes it difficult to prepare a chirally pure molecule.

In the next series the test system is antibody 2D12.5. The experiment in a line: competitive immunoassay (ELISA) of metal-DOTA complexes against immobilized Y-DOTA. It is filed as binding, murine. Particulars: 37° C., DOTA analog [S]-2-(p-nitrobenzyl)-DOTA. From the text:
FIG. 13 is graphical display showing the relative binding of metal-DOTA complexes to antibody 2D12.5. A representative set of competitive binding curves obtained from ELISA experiments described in Example 3 below. Error bars (representing the standard error of the mean) are shown, but are generally smaller than the data points.
Elements plotted in the order Sc (open circle), Lu, Yb, Tm, Er, Ho, Y (open diamond), Dy, Tb, Gd, Eu, Sm, Nd, Pr, Ce, La. ΔΔG values relative to Y-DOTA, set at 0. Error bars represent standard error of the mean.
To determine the metal selectivity of the antibody 2D12.5, a competitive immunoassays was used to measure the binding constants of multiple metal-DOTA complexes relative to Y^3+-DOTA.
We examined the monoclonal antibody 2D12.5, initially developed to bind specifically to Y-DOTA for targeted radiotherapy (see, e.g., Goodwin et al., i Cancer Res. 54: 5937-5946 (1994)), in order to determine the scope of its activity. To assess the metal selectivity of antibody 2D12.5, a competitive immunoassay to measure the binding constants of various metal-DOTA complexes relative to the original Y^3+ complex was developed (FIG. 12). Briefly, 2D12.5 was incubated at 37° C. in the presence of immobilized Y-DOTA and a soluble metal-DOTA competitor. […] Binding was measured by standard methods known to those of skill in the art. […]

Another series relates to Janus-DOTA. Particulars: for Janus-DOTA, a bivalent form of DOTA; cited from earlier work.
For series [1] the following is noted: 24 hours after administration of the bound complex; cited from earlier work.
Series [2] concerns (S) nitrobenzyl-DOTA chelates. Particulars: for (S) nitrobenzyl-DOTA chelates; cited from earlier work.

With `O=C(O)CN1CCN(CC(=O)O)CCN(CC(=O)O)[C@@H](Cc2ccc([N+](=O)[O-])cc2)CN(CC(=O)O)CC1` (single isomer, unassigned) [(S)-isomer], in the series with 2D12.5, the “relative binding affinity, different sidechain locations” value is given as “clearly stronger” and the “relative binding affinity, Y-DOTA isomers” value is “preferred isomer for binding”. Regarding Gd-DOTA, the results for the “binding strength relative to the original Y^3+ complex (in words)” value in the series on antibody 2D12.5 and in the series with antibody 2D12.5 (listed as Gd^3+) were “bind more tightly than the original Y^3+ complex” and “strongest binders”, respectively. Take “(5-Amino-2-methoxy-phenyl)-carboxymethyl)-DOTA”: in the series on 2D12.5, the “relative binding affinity, different sidechain locations” value is “still sufficiently strong”.

Turning to `O=C(O)CN1CCN(CC(=O)O)CCN(CC(=O)O)C(Cc2ccc([N+](=O)[O-])cc2)CN(CC(=O)O)CC1` (single isomer, unassigned; isomer 2) [(R)-isomer, 2-(4-nitrobenzyl)-DOTA], the “relative binding affinity, Y-DOTA isomers” value in the series on 2D12.5 was “affinity decreases less than an order of magnitude”.

B1: 2D12.5: anti-chelate monoclonal antibody that binds metal chelates of DOTA and similar structures (antibody, listed as Mus musculus, V domains shown)
VH: QVKLQESGPGLVQPSQSLSITCTVSGFSLTDYGVHWVRQSPGKGLEWLGVIWSGGGTAYTAAFISRLNIYKDNSKNQVFFEMNSLQANDTAMYYCARRGSYPYNYFDVWGQGTTVTVSS
VL: QAVVTQESALTTSPGETVTLTCRSSTGAVTTSNYANWVQEKPDHLFTGLIGGNNNRPPGVPARFSGSLIGDKAALTIAGTQTEDEAIYFCALWYSNHWVFGGGTRLTVLG
modifications: murine monoclonal antibody 2D12.5 heavy chain variable domain (VH); murine monoclonal antibody 2D12.5 light chain variable domain (VL)
B1: the “binding constant Ks” value (in the series on Janus-DOTA; in series [2]) was “≈ 10^8” throughout. Also, in series [1], the “2D12.5 bound to metal chelates present” value is reported as 74-96%.
